Patent publication US5747503A, “Selective inhibitors of biogenic amine transporters” (priority 1996, dated 1998)
Values joined by “and” are separate entries in the source; they are usually repeats but may differ in a detail not shown here. Equal entries are not always repeated. Structures can show the parent of a compound that is named as a salt. Where two headings read alike, the source gives them in different places.

Assays:
PCP site 2 [1] = type: binding, guinea pig
Procedure: (§1) Large batches of frozen membranes were prepared with minor modifications of published procedures (Rothman, et al. (1989), supra). Twenty to thirty frozen guinea pig brains with cerebellum were thawed for 15 minutes and homogenized with a Polytron in ice-cold 5 mM Tris-HCl, pH 8.0 (10 ml/brain). The homogenate was centrifuged at 37,000×g for 10 minutes, and the pellet was washed by resuspension in the same volume of buffer followed by recentrifugation. The pellets were resuspended in an equal volume of 5 mM Tris-HCl, pH 8.0, and the concentration was adjusted to 50 mM by the addition of 1M Tris-HCl, pH 8.0. The homogenate was centrifuged for 10 min at 37,000×g. The pellets were then washed three times by resuspension and centrifugation using 50 mM Tris-HCl, pH 8.0. The final pellets were resuspended in the Tris-HCl buffer (0.5 ml/brain), pooled and 1 ml aliquots were distributed to microfuge tubes, which were stored at -70° for assay.
The [^3 H]TCP binding assay for PCP site 2 was conducted with minor modifications of published protocols (Rothman, et al. (1989), supra). Briefly, 12×75 mm polystyrene test tubes were prefilled with 100 μl of [^3 H]TCP (2 nM final concentration) in a protease inhibitor cocktail (PIC) containing 5000 nM (+) -MK801, 100 μl of distilled H2 O or drug (in distilled H2 0), 50 μl of buffer (5 mM Tris-HCL, pH 8.0), and 750 μl of membrane (0.5-1.0 mg/ml protein, in 5 mM Tris-HCl, pH 8.0). […] The protease inhibitor cocktail was composed of 25 μg/ml leupeptin, 25 μg/ml chymostatin, 0.1 mM EDTA, and 0.1 mM ethylene glycol-bis-(beta-aminoethyl-ether)-N,N,N',N'-tetraacetic acid (EGTA). The incubation time was 18-24 hours at 4° C. (steady state) in a final volume of 1 ml. Triplicate samples were filtered with an MR24 Brandel Cell Harvester and washed with two 5 ml aliquots of ice cold buffer. Whatman GF/B filters were presoaked in buffer containing 2% polyethylenimine. The tritium retained on the filters was measured using a Taurus scintillation counter at 44% efficiency after an overnight extraction into ICN Cytoscint cocktail. Non specific binding was determined using 10 μM of TCP. Protein was determine using the method of Lowry, et al., supra.
(§2) Inhibition curves were fit to the two parameter logistic equation for the best-fit estimates of the IC50 using nonlinear least squares curve fitting methods as previously described (Rothman et al. (1993), supra); Jones, S. M. and Rogawski, M. A. Mol. Neuropharmacol. 2: 303-310 (1992)).
(§3) ^a The binding assays for PCP (site 2) and PCP (site 1) were conducte
(§4) as previously reported (Rothman, R. B., et al., In: Multiple Sigma and PC
(§5) Receptor Ligands: Mechanisms for Neuromodulation and Protection 307-330
(§6) (Domino, E. F. and Kamenka, J. M., eds., 1992) using [^3 H]TCP in the
(§7) presence of (+)MK801 for site 2 and [^3 HMK801 for site 1 except that
the [^3 H]TCP assays were terminated after 18-24 hours of incubation

PCP site 1 = test: [^3 H](+)-MK801 binding to PCP site 1; design: species or system guinea pig
Procedure: as §1, with “assay. […]” for “assay.”
as §2, §3, §4, §5, §6, §7

PCP site 2 [2] = settings: guinea pig brain membranes; literature; cited from earlier work
[3] = Table 1, [^3 H]TCP in presence of (+)MK801, 18-24 hours at 4° C.

SMILES | IC50 (PCP site 2 [1]; Table 3, guinea pig membranes) | IC50 (PCP site 1; Table 3, guinea pig membranes) [nM] | other results
c1ccc(CC2CC3CN2Cc2ccccc23)cc1 (stereo not drawn) [RTI-4793-41] | 15 nM and 15.6 nM | > 2000 | affinity/selectivity for PCP site 2 in words (PCP site 2 [1]): high affinity and selectivity
c1ccc(CCCCC2CC3CN2Cc2ccccc23)cc1 (stereo not drawn) [RTI-4793-52] | 302 ± 28 nM | > 2000 | 
CC[C@H]1C[C@@H]2Cc3ccccc3[C@@H]2N1C (relative stereo) [3e] |  |  | IC50 (PCP site 2 [1]; [3]): 326 ± 49 nM; relative potency for site 2 versus 3b (PCP site 2 [1]; versus 3b): approximately ten-times less than that of 3b; affinity for PCP site 1 in words (PCP site 1): low affinity at both sites; IC50 (PCP site 1; Table 1, [^3 H]MK801): > 20000 nM
c1csc(CC2CC3CN2Cc2ccccc23)c1 (stereo not drawn) [RTI-4793-55] | 43.2 ± 6.58 nM | > 2000 | 
c1csc(C2(N3CCCCC3)CCCCC2)c1 [TCP] |  |  | binding of [^3 H]TCP to two sites (PCP site 1 and PCP site 2) (PCP site 2 [2]): high affinity
Fc1ccc(CC2CC3CN2Cc2ccccc23)cc1 (stereo not drawn) [RTI-4793-50] | 73.5 ± 9 nM | > 2000 | 
CN1[C@@H](Cc2ccc(Cl)cc2)C[C@@H]2Cc3ccccc3[C@@H]21 (racemic) [RTI-4793-45, (2RS,3aSR,8bRS)-1,2,3,3a,4,8b-Hexahydro-2-(4-chlorobenzyl)-1-methylindeno-[1,2-b]pyrrole Hydrochloride] | 254 ± 18 nM | > 2000 | 
CN1[C@@H](Cc2ccccc2)C[C@@H]2Cc3ccccc3[C@@H]21.O=C(O)c1ccc(O)cc1O [(-)-RTI-4793-14] | 316 ± 58.7 nM | > 2000 | 
c1ccc(CC2CC3CN2Cc2ccccc23)cc1 (single isomer, unassigned; (-)) [(-)-RTI-4793-41] | 28.9 ± 3 nM | > 2000 | 
c1ccc(CCC2CC3CN2Cc2ccccc23)cc1 (stereo not drawn) [RTI-4793-51] | 289 ± 22 nM | > 2000 | 
COc1ccc(C[C@@H]2C[C@H]3Cc4ccccc4[C@H]3N2C)cc1 (relative stereo) [RTI-4793-46, (2RS,3aSR,8bRS)-1,2,3,3a,4,8b-Hexahydro-2-(4-methoxybenzyl)-1-methylindeno[1,2-b1pyrrole Hydrochloride] | 148 ± 23 nM | > 2000 | 
CN1[C@H](Cc2c[nH]c3ccccc23)C[C@H]2Cc3ccccc3[C@H]21 (relative stereo) [RTI-4793-44, (2RS, 3aSR, 8bRS) -1,2,3,3a, 4,8b-Hexahydro-2-(3-methanoindole)-1-methylindeno-[1,2-b]pyrrole Hydrochloride] | 114 ± 12 nM | > 2000 | 
BrC1CC2CN(Cc3ccccc32)C1c1ccccc1 (stereo not drawn) [RTI-4793-47] | 68.8 ± 11.5 nM | > 2000 | 
c1ccc(C2CCC3CN2Cc2ccccc23)cc1 (stereo not drawn) [RTI-4793-48] | 42 nM and 42.3 nM | > 2000 | affinity/selectivity for PCP site 2 in words (PCP site 2 [1]): high affinity and selectivity
CCOC(=O)[C@H]1C[C@@H]2Cc3ccccc3[C@@H]2N1C (relative stereo) [3d] |  |  | IC50 (PCP site 2 [1]; [3]): 16700 nM; IC50 (PCP site 1; Table 1, [^3 H]MK801): > 20000 nM
CN1CC[C@@H]2Cc3ccccc3[C@@H]21 (relative stereo) [3a] |  |  | affinity/selectivity for PCP site 2 in words (PCP site 2 [1]): low affinity at both sites; IC50 (PCP site 2 [1]; [3]): > 10000 nM; affinity for PCP site 1 in words (PCP site 1): low affinity at both sites; IC50 (PCP site 1; Table 1, [^3 H]MK801): > 20000 nM
c1ccc(CC2CC3CN2Cc2ccccc23)cc1 (single isomer, unassigned; (+)) [(+)-RTI-4793-41] | 4.4 ± 0.7 nM | > 2000 | IC50 (PCP site 2 [1]; Table 3, guinea pig membranes, listed as (+) optical isomer of RTI-4793-41): 4.4 nM
COc1ccc(CC2CC3CN2Cc2ccccc23)cc1 (stereo not drawn) [RTI-4793-49] | 106 ± 13.8 nM | > 2000 | 
